According to US6093732A, “4-hydroxyquinoline-3-carboxamides and hydrazides as antiviral agents” (Pharmacia & Upjohn Company, priority 1998, dated 2000):
Where a name gives a salt, the structure may show the parent alone.

Target: T1, HCMV polymerase (Human cytomegalovirus, UniProt P08546)
T1 construct: made in house; host or cells: recombinant baculovirus-infected SF-9 cells
Experiment: HCMV polymerase scintillation proximity assay (SPA), modified version
Format: biochemical
Details: CMV polymerase; Table 1; modified assay with 4.5 mM DTT, compounds in 100% DMSO; read-out: Antiviral Selective Polymerase IC50 Values, CMV
Outline: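 Recombinant polymerase (baculovirus/SF-9) in 5.4 mM HEPES pH 7.5, 11.7 mM KCl, 4.5 mM MgCl2, 0.36 mg/ml BSA, 90 nM 3H-dTTP, ±2 mM CHAPS; started with 6 nM biotinylated poly(dA)-oligo(dT), 25° C or 37° C, EDTA-stopped in linear range (30 min for HCMV). Streptavidin-SPA read; IC50 by linear regression. Modified version: 100% DMSO compound dilution, 4.5 mM DTT added.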

T1 sequence (P08546 whole entry): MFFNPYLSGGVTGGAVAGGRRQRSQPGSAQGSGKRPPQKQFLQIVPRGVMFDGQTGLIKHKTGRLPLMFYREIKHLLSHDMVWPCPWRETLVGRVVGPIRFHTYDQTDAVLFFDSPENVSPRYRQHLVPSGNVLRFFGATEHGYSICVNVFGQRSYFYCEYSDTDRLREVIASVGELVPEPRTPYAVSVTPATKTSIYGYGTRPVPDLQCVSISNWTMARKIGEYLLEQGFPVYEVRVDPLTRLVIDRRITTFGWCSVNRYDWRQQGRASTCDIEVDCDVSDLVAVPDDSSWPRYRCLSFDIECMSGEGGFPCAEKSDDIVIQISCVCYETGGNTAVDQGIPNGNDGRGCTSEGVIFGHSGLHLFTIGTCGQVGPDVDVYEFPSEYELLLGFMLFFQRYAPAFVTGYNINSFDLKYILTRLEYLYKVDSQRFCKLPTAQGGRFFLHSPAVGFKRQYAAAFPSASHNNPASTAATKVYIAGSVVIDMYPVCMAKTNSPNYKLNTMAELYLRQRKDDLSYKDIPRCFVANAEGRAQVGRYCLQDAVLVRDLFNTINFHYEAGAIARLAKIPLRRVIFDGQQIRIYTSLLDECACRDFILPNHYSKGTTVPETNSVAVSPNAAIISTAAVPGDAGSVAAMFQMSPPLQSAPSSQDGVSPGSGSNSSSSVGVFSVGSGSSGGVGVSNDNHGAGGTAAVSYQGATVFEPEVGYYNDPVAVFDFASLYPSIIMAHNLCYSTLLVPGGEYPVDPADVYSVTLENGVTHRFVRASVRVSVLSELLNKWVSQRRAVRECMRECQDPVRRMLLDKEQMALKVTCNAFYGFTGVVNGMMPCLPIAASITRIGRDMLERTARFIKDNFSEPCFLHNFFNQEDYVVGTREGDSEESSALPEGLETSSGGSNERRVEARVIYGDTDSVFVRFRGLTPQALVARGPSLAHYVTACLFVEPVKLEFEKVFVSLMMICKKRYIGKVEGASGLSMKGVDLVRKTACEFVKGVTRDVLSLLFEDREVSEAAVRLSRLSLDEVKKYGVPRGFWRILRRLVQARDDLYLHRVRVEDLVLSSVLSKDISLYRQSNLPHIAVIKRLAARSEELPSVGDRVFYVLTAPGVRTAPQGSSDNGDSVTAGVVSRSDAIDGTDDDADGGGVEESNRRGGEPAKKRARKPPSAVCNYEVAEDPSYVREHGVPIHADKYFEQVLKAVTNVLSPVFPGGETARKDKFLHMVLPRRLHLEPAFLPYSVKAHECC

| Structure (SMILES) | IC50 [µM] |
| --- | --- |
| CC(C)C(NC(=O)OC(C)(C)C)C(=O)OCCCc1cc(F)c2ncc(C(=O)NCc3ccc(Cl)cc3)c(O)c2c1 (centres unmarked) [Example 146, 3-(3-{[(4-Chlorobenzyl)amino]carbonyl}-8-fluoro-4-hydroxy-6-quinolinyl)propyl 2-[(tert-butoxycarbonyl)amino]-3-methylbutanoate] | 38.7 |
| CC(=O)/C=C/c1cc(F)c2ncc(C(=O)NCc3ccc(Cl)cc3)c(O)c2c1 [Example 153, N-(4-Chlorobenzyl)-8-fluoro-4-hydroxy-6-[(E)-3-oxo-1-butenyl]-3-quinolinecarboxamide] | 8.3 |
| CC(C)(C)OC(=O)NCCCCC(NC(=O)OC(C)(C)C)C(=O)OCCCc1cc(F)c2ncc(C(=O)NCc3ccc(Cl)cc3)c(O)c2c1 (centres unmarked) [Example 155, 3-(3{[(4-Chlorobenzyl)amino]carbonyl}-8-fluoro-4-hydroxy-6-quinolinyl)propyl 2,6-bis[(tert-butoxycarbonyl)amino]hexanoate] | ≥ 50 |
| NCCCCC(N)C(=O)OCCCc1cc(F)c2ncc(C(=O)NCc3ccc(Cl)cc3)c(O)c2c1 (centres unmarked) [Example 156, 3-(3-{[(4-Chlorobenzyl)amino]carbonyl}-8-fluoro-4-hydroxy-6-quinolinyl)propyl 2,6-diaminohexanoate, trifluoroacetic acid salt] | 15.9 |
| O=C(NCc1ccc(Cl)cc1)c1cnc2ccc(CO)cc2c1O [Example 166, N-(4-Chlorobenzyl)-4-hydroxy-6-(hydroxymethyl)-3-quinolinecarboxamide] | 7 |
| NCCSc1cc(F)c2ncc(C(=O)NCc3ccc(Cl)cc3)c(O)c2c1 [Example 172, 6-[(2-Aminoethyl)sulfanyl]-N-(4-chlorobenzyl)-8-fluoro-4-hydroxy-3-quinolinecarboxamide, hydrobromide] | 35.1 |
| COCCOCSc1cc(F)c2ncc(C(=O)NCc3ccc(Cl)cc3)c(O)c2c1 [Example 173, N-(4-Chlorobenzyl)-8-fluoro-4-hydroxy-6-{[(2-methoxyethoxy)-methyl]sulfanyl}-3-quinolinecarboxamide] | 12.8 |
| O=C(NCc1ccc(Cl)cc1)c1cnc2c(F)cc(SCCN3CCOCC3)cc2c1O [Example 174] | 28.9 |
| C[S+]([O-])c1cc(F)c2ncc(C(=O)NCc3ccc(Cl)cc3)c(O)c2c1 (centres unmarked) [Example 175, N-(4-Chlorobenzyl)-8-fluoro-4-hydroxy-6-(methylsulfinyl)-3-quinolinecarboxamide] | 7.2 |
| CS(=O)(=O)c1cc(F)c2ncc(C(=O)NCc3ccc(Cl)cc3)c(O)c2c1 [Example 176, N-(4-Chlorobenzyl)-8-fluoro-4-hydroxy-6-(methylsulfonyl)-3-quinolinecarboxamide] | 11.4 |
| O=C(NCc1ccc(Cl)cc1)c1cnc2c(F)cc([S+]([O-])CCO)cc2c1O (centres unmarked) [Example 177, N-(4-Chlorobenzyl)-8-fluoro-4-hydroxy-6-[(2-hydroxyethyl)sulfinyl]-3-quinolinecarboxamide] | 7.2 |
| O=C(NCc1ccc(Cl)cc1)c1cnc2c(F)cc(C(=O)N3CCOCC3)cc2c1O [Example 180, N-(4-Chlorobenzyl)-8-fluoro-4-hydroxy-6-(4-morpholinylcarbonyl)-3-quinolinecarboxamide] | 28.2 |
| O=C(NCCO)c1cc(F)c2ncc(C(=O)NCc3ccc(Cl)cc3)c(O)c2c1 [Example 181, N^3-(4-Chlorobenzyl)-8-fluoro-4-hydroxy-N^6-(2-hydroxyethyl)-3,6-quinolinedicarboxamide] | 39.2 |

The remaining lines, values ahead:

| IC50 [µM] | Structure (SMILES) |
| --- | --- |
| 7 | O=C(CN1CCOCC1)OCCCc1cc(F)c2ncc(C(=O)NCc3ccc(Cl)cc3)c(O)c2c1 [Example 147, 3-(3-([(4-Chlorobenzyl)amino]carbonyl}-8-fluoro-4-hydroxy-6-quinolinyl)propyl 2-morpholinoacetate] |
| 6.3 | CC(C)C(N)C(=O)OCCCc1cc(F)c2ncc(C(=O)NCc3ccc(Cl)cc3)c(O)c2c1 (centres unmarked) [Example 149, 3-(3-{[(4-Chlorobenzyl)amino]carbonyl}-8-fluoro-4-hydroxy-6-quinolinyl)propyl 2-amino-3-methylbutanoate] |
| 4.8 | O=C(Nc1ccccc1)OCC#Cc1cc(F)c2ncc(C(=O)NCc3ccc(Cl)cc3)c(O)c2c1 [Example 150, 3-(3-{[(4-Chlorobenzyl)amino]carbonyl}-8-fluoro-4-hydroxy-6-quinolinyl)-2-propynyl phenylcarbamate] |
| 0.91 | CCCc1ccc2ncc(C(=O)NCc3ccc(Cl)cc3)c(O)c2c1 [Example 151, N-(4-Chlorobenzyl)-4-hydroxy-6-propyl-3-quinolinecarboxamide] |
| 5.4 | CC(O)C#Cc1ccc2ncc(C(=O)NCc3ccc(Cl)cc3)c(O)c2c1 (centres unmarked) [Example 152, N-(4-Chlorobenzyl)-4-hydroxy-6-(3-hydroxy-1-butynyl)-3-quinolinecarboxamide] |
| 3.4 | O=C(NCc1ccc(Cl)cc1)c1cnc2c(F)cc(CCCCCO)cc2c1O [Example 154, N-(4-Chlorobenzyl)-8-fluoro-4-hydroxy-6-(5-hydroxypentyl)-3-quinolinecarboxamide] |
| < 0.78 | O=C(NCc1ccc(Cl)cc1)c1cnc2c(F)cc(CN3CCOCC3)cc2c1O [Example 158, N-(4-Chlorobenzyl)-8-fluoro-4-hydroxy-6-(4-morpholinylmethyl)-3-quinolinecarboxamide] |
| 5 | O=C(Nc1ccccc1)OCCCc1cc(F)c2ncc(C(=O)NCc3ccc(Cl)cc3)c(O)c2c1 [Example 159, 3-(3-{[(4-Chlorobenzyl)amino]carbonyl}-8-fluoro-4-hydroxy-6-quinolinyl)propyl phenylcarbamate] |
| 1.2 | CC(=O)CCc1cc(F)c2ncc(C(=O)NCc3ccc(Cl)cc3)c(O)c2c1 [Example 160, N-(4-Chlorobenzyl)-8-fluoro-4-hydroxy-6-(3-oxobutyl)-3-quinolinecarboxamide] |
| 0.59 | O=C(NCc1ccc(Cl)cc1)c1cnc2ccc(COCCO)cc2c1O [Example 163, N-(4-Chlorobenzyl)-4-hydroxy-6-[(2-hydroxyethoxy)methyl]-3-quinolinecarboxamide] |
| 2.3 | O=C(NCc1ccc(Cl)cc1)c1cnc2ccc(COC(CO)CO)cc2c1O [Example 164, N-(4-Chlorobenzyl)-4-hydroxy-6-{[2-hydroxy-1-(hydroxymethyl)ethoxy]methyl}-3-quinolinecarboxamide] |
| 6.7 | COC(=O)c1ccc2ncc(C(=O)NCc3ccc(Cl)cc3)c(O)c2c1 [Example 165, Methyl 3-{[(4-chlorobenzyl)amino]carbonyl}-4-hydroxy-6-quinolinecarboxylate] |
| 5 | Cc1cc(Cl)cc2c(O)c(C(=O)NCc3ccc(Cl)cc3)cnc12 [Example 167, 6-Chloro-N-[(4-chlorophenyl)methyl]-4-hydroxy-8-methyl-3-quinolinecarboxamide] |
| 3.7 | O=C(NCc1ccc(Cl)cc1)c1cnc2cc(F)c(F)cc2c1O [Example 169, N-[(4-Chlorophenyl)methyl]-6,7-difluoro-4-hydroxy-3-quinolinecarboxamide] |
| 4.4 | CSc1cc(F)c2ncc(C(=O)NCc3ccc(Cl)cc3)c(O)c2c1 [Example 170, N-(4-Chlorobenzyl)-8-fluoro-4-hydroxy-6-(methylsulfanyl)-3-quinolinecarboxamide] |
| 1.9 | O=C(NCc1ccc(Cl)cc1)c1cnc2c(F)cc(SCCO)cc2c1O [Example 171] |
